IC50 data for 62 compounds are collected here from patent publication US8604016B2, “Heterocyclic inhibitors of glutaminase” (Calithera Biosciences Inc., priority 2011, dated 2013).

One experiment concerns the target recombinant form of Glutaminase 1 (GAC) (Homo sapiens, UniProt O94925). The experiment can be described thus: Recombinant Enzyme Assay (GAC coupled to GDH, NADH absorbance, no preincubation). In kind it is biochemical. Conditions: no preincubation; read-out: GAC Delta N2 IC50 no preinc. The protocol: Enzymatic reaction was started with the addition of 50 μL of enzyme solution (50 mM Tris-HCl pH 8.0, 0.2 mM EDTA, 150 mM K2HPO4, 0.1 mg/ml BSA, 1 mM DTT, 10 ppm antifoam, 4 units/ml GDH, 4 mM adenosine diphosphate, and 4 nM GAC) and read in a Molecular Devices M5 plate reader at 20° C. The plate reader was configured to read absorbance (λ=340 nm) in kinetic mode for 15 minutes. Data was recorded as milli-absorbance units per minute and slopes were compared to a control compound and a DMSO-only control on the same plate. Compounds with slopes less than the DMSO control were considered inhibitors and plate variability was assessed using the control compound.
Turning to `O=C(Cc1ccc2ncccc2c1)Nc1nnc(CCCCc2nnc(NC(=O)Cc3ccc4ncccc4c3)s2)s1` [Compound 269], the IC50 worked out at 0.26 µM.

Turning to `N[C@@H](CO)C(=O)Nc1nnc(CCSCCc2nnc(NC(=O)[C@@H](N)CO)s2)s1` [Compound 137], the IC50 is above 20 µM.

Consider `O=C(CCc1ccccc1)Nc1nnc(CCSCCc2nnc(NC(=O)CCc3ccccc3)s2)s1` [Compound 75], for which the IC50 is above 50 µM.

For the compound `O=C(Nc1nnc(CCSCCc2nnc(NC(=O)C3Cc4cc(Cl)ccc4O3)s2)s1)C1Cc2cc(Cl)ccc2O1` (centres unmarked) [Compound 189], the IC50 came to 4.4 µM.

On to `CN(C(=O)Cc1ccccc1)c1nnc(CCSCCc2nnc(N(C)C(=O)Cc3ccccc3)s2)s1` [Compound 6], for which the IC50 is above 50 µM.

With `CC(=O)NCC(C(=O)Nc1nnc(CCCCc2nnc(NC(=O)C(CNC(C)=O)c3ccccc3)s2)s1)c1ccccc1` (centres unmarked) [Compound 266], the IC50 is 2.2 µM.

Turning to `N#Cc1cccc(CC(=O)Nc2nnc(CCSCCc3nnc(NC(=O)Cc4cccc(C#N)c4)s3)s2)c1` [Compound 155], the IC50 was 0.27 µM.

As to `CC(C(=O)Nc1nnc(CCSCCc2nnc(N)s2)s1)c1ccccc1` (centres unmarked) [Compound 20], the IC50 is 6.6 µM.

With `O=C(CC1CCCC1)Nc1nnc(CCSCCc2nnc(NC(=O)CC3CCCC3)s2)s1` [Compound 58], the IC50 is above 50 µM.

For the compound `O=C(Nc1nnc(CCCCCc2nnc(NC(=O)C(CO)c3ccccc3)s2)s1)C(CO)c1ccccc1` (centres unmarked) [Compound 30], the IC50 turned out to be 1.2 µM.

For `Cn1cc(CC(=O)Nc2nnc(CCCCc3nnc(NC(=O)Cc4cn(C)c5ccccc45)s3)s2)c2ccccc21` [Compound 201], the IC50 was 2.7 µM.

Consider `O=C(Cc1ccc(C(F)(F)F)cc1)Nc1nnc(CCSCCc2nnc(NC(=O)Cc3ccc(C(F)(F)F)cc3)s2)s1` [Compound 183], for which the IC50 was above 20 µM.

For `O=C(Cc1cccc(Cn2cccn2)c1)Nc1nnc(CCCCc2nnc(NC(=O)Cc3cccc(Cn4cccn4)c3)s2)s1` [Compound 362], the IC50 came out at 0.35 µM.

`C[C@H](O)C(=O)Nc1nnc(CCCCc2nnc(NC(=O)Cc3ccccc3)s2)s1` [Compound 321]: the IC50 stood at 2.5 µM.

`O=C(Cc1cc2ccccc2o1)Cc1nnc(CCSCCc2nnc(NC(=O)Cc3cc4ccccc4o3)s2)s1` [Compound 193]: the IC50 was 3.4 µM.

Turning to `CCOC(=O)Nc1nnc(CCCCc2nnc(NC(=O)Cc3ccccc3)s2)s1` [Compound 244], the IC50 was found to be 0.84 µM.

For `C=CCC(C(=O)Nc1nnc(CCCCc2nnc(NC(=O)C(CC=C)c3ccccc3)s2)s1)c1ccccc1` (centres unmarked) [Compound 209], the IC50 is above 20 µM.

With `O=C(Cc1cc2ccccc2o1)Nc1nnc(CCCCc2nnc(NC(=O)Cc3cc4ccccc4o3)s2)s1` [Compound 194], the IC50 worked out at 10 µM.

In the case of `O=C(Nc1nnc(CCCCc2nnc(NC(=O)C3(C(F)(F)F)CC3)s2)s1)C1(C(F)(F)F)CC1` [Compound 62], the IC50 was above 50 µM.

`COC(C(=O)Nc1nnc(CCCCc2nnc(NC(=O)C(OC)c3ccccc3)s2)s1)c1ccccc1` (centres unmarked) [Compound 65]: the IC50 stood at 1.3 µM.

As to `CC(C(=O)Nc1nnc(CCSCCc2nnc(NC(=O)C(C)c3ccccc3)s2)s1)c1ccccc1` (centres unmarked) [Compound 19], the IC50 turned out to be 11 µM.

For the compound `CC(C)(C)OC(=O)NC(C(=O)Nc1nnc(CCCCc2nnc(NC(=O)C(NC(=O)OC(C)(C)C)C3CCCC3)s2)s1)C1CCCC1` (centres unmarked) [Compound 113], the IC50 was above 20 µM.

With `CC(=O)N[C@@H](C(=O)Nc1nnc(CCSCCc2nnc(NC(=O)[C@H](NC(C)=O)c3ccccc3)s2)s1)c1ccccc1` [Compound 128], the IC50 was found to be 32 µM.

Take `CC(C)(C)OC(=O)N1CCN(C(C(=O)Nc2nnc(CCSCCc3nnc(NC(=O)C(c4ccccc4)N4CCN(C(=O)OC(C)(C)C)CC4)s3)s2)c2ccccc2)CC1` (centres unmarked) [Compound 76]: the IC50 was above 50 µM.

On to `COCCC(=O)Nc1nnc(CCCCc2nnc(NC(=O)CCOC)s2)s1` [Compound 100], for which the IC50 was 8.1 µM.

With `CC[C@](O)(C(=O)Nc1nnc(CCCCc2nnc(NC(=O)[C@@](O)(CC)c3ccccc3)s2)s1)c1ccccc1` [Compound 143], the IC50 worked out at 0.57 µM.

For `O=C(Cc1cccc(F)c1)Nc1nnc(CCCCc2nnc(NC(=O)Cc3cccc(F)c3)s2)s1` [Compound 273], the IC50 is 0.14 µM.

`C[C@@H](O)C(=O)Nc1nnc(CCCCc2nnc(NC(=O)Cc3ccccc3)s2)s1` [Compound 322]: the IC50 is 2.8 µM.

With `COc1cccc(CC(=O)Nc2nnc(CCCCc3nnc(NC(=O)Cc4cccc(OC)c4OC)s3)s2)c1OC` [Compound 260], the IC50 was 0.15 µM.

For the compound `O=C(Nc1nnc(CCCCc2nnc(NC(=O)C3CCCO3)s2)s1)C1CCCO1` (centres unmarked) [Compound 54], the IC50 turned out to be 9.2 µM.

Turning to `CCC(C)C(=O)Nc1nnc(CCCCc2nnc(NC(=O)C(C)CC)s2)s1` (centres unmarked) [Compound 107], the IC50 was 4.3 µM.

`O=C(Cc1cccs1)Nc1nnc(CCCCc2nnc(NC(=O)Cc3cccs3)s2)s1` [Compound 87]: the IC50 stood at 0.18 µM.

Take `CC(C)[C@H](NC(=O)OC(C)(C)C)C(=O)OCC(C(=O)Nc1nnc(CCCCc2nnc(NC(=O)C(COC(=O)[C@@H](NC(=O)OC(C)(C)C)C(C)C)c3ccccc3)s2)s1)c1ccccc1` (some centres unmarked) [Compound 272]: the IC50 was above 20 µM.

On to `CO[C@@H](C(=O)Nc1nnc(CCCCc2nnc(NC(=O)[C@H](OC)c3ccccc3)s2)s1)c1ccccc1` [Compound 147], for which the IC50 was 0.62 µM.

As to `O=C(Nc1nnc(CCCCc2nnc(NC(=O)C3CC(O)c4ccccc43)s2)s1)C1CC(O)c2ccccc21` (centres unmarked) [Compound 94], the IC50 turned out to be 0.28 µM.

Turning to `COc1ccc(CC(=O)Nc2nnc(CCSCCc3nnc(NC(=O)Cc4ccc(OC)cc4)s3)s2)cc1` [Compound 161], the IC50 was 0.15 µM.

In the case of `O=C(Nc1nnc(CCSCCc2nnc(NC(=O)C3COc4ccccc4O3)s2)s1)C1COc2ccccc2O1` (centres unmarked) [Compound 41], the IC50 came to 7.9 µM.

Take `O=C(Cc1cccc2[nH]ccc12)Nc1nnc(CCCCc2nnc(NC(=O)Cc3cccc4[nH]ccc34)s2)s1` [Compound 323]: the IC50 came out at 0.056 µM.

For the compound `COc1ccc(CC(=O)Nc2nnc(CCCCc3nnc(NC(=O)Cc4ccc(OC)c(OC)c4)s3)s2)cc1OC` [Compound 160], the IC50 was determined as 0.16 µM.

Consider `O=CO[C@@H](C(=O)Nc1nnc(CCCCc2nnc(NC(=O)[C@H](OC=O)c3ccccc3)s2)s1)c1ccccc1` [Compound 68], for which the IC50 was 4.9 µM.

Consider `N#Cc1ccc(CC(=O)Nc2nnc(CCSCCc3nnc(NC(=O)Cc4ccc(C#N)cc4)s3)s2)cc1` [Compound 216], for which the IC50 worked out at 0.89 µM.

Turning to `CC(CCc1nnc(NC(=O)Cc2ccccc2)s1)CCc1nnc(NC(=O)Cc2ccccc2)s1` [Compound 9], the IC50 was above 50 µM.

For `O=C(Cc1ccccc1)Nc1nnc(CCCCc2nnc(NC(=O)Cc3ccc(F)c(O)c3F)s2)s1` [Compound 346], the IC50 stood at 0.12 µM.

With `CC(CCc1nnc(NC(=O)Cc2ccccc2)s1)Cc1nnc(NC(=O)Cc2ccccc2)s1` (centres unmarked) [Compound 44], the IC50 worked out at 4.9 µM.

`CC(=O)OCC(=O)Nc1nnc(CCSCCc2nnc(NC(=O)COC(C)=O)s2)s1` [Compound 5]: the IC50 is above 50 µM.

As for `COc1ccccc1CC(=O)Nc1nnc(CCCCc2nnc(NC(=O)Cc3ccccc3OC)s2)s1` [Compound 264], the IC50 is 0.072 µM.

Turning to `O=C(Cc1ccccc1)Nc1nnc(CCSCc2nnc(NC(=O)Cc3cccc(Cl)c3)s2)s1` [Compound 372], the IC50 came out at 0.16 µM.

Regarding `O=C(Cc1cccc(-n2ccnc2)c1)Nc1nnc(CCCCc2nnc(NC(=O)Cc3cccc(-n4ccnc4)c3)s2)s1` [Compound 363], the IC50 is 0.065 µM.

For `O=C(Cc1ccccc1)Nc1nnc(CCCCc2nnc(NC(=O)Cc3cccnc3)s2)s1` [Compound 309], the IC50 came out at 0.11 µM.

Consider `CC(C)CC(=O)Nc1nnc(CCSCCc2nnc(NC(=O)CC(C)C)s2)s1` [Compound 4], for which the IC50 came to 13 µM.

Take `O=C(CC1CCNCC1)Nc1nnc(CCSCCc2nnc(NC(=O)CC3CCNCC3)s2)s1` [Compound 129]: the IC50 was above 20 µM.

In the case of `COc1cc(C(O)C(=O)Nc2nnc(CCCCc3nnc(NC(=O)C(O)c4ccc(O)c(OC)c4)s3)s2)ccc1O` (centres unmarked) [Compound 319], the IC50 was determined as 0.64 µM.

For the compound `O=C(CCN1CCOCC1)OCC(C(=O)Nc1nnc(CCCCc2nnc(NC(=O)C(CO)c3ccccc3)s2)s1)c1ccccc1` (centres unmarked) [Compound 228, 3-((5-{4-[5-(3-hydroxy-2-phenylpropanamido)-1,3,4-thiadiazol-2-yl]butyl}-1,3,4-thiadiazol-2-yl)amino)-3-oxo-2-phenylpropyl 3-morpholinopropanoate], the IC50 came out at 0.57 µM.

Regarding `O=C(Cc1c(F)cccc1F)Nc1nnc(CCCCc2nnc(NC(=O)Cc3c(F)cccc3F)s2)s1` [Compound 293], the IC50 came to 0.24 µM.

Take `O=C(Nc1nnc(CCCCc2nnc(NC(=O)C3(c4ccccc4)CCOCC3)s2)s1)C1(c2ccccc2)CCOCC1` [Compound 166]: the IC50 stood at 7.4 µM.

Regarding `COc1ccccc1CC(=O)Nc1nnc(CCSCCc2nnc(NC(=O)C(CO)c3ccccc3OC)s2)s1` (centres unmarked) [Compound 246], the IC50 was determined as 0.4 µM.

Consider `O=C(Cc1ccccc1Cl)Nc1nnc(CCSCCc2nnc(NC(=O)Cc3ccccc3Cl)s2)s1` [Compound 255], for which the IC50 is 0.38 µM.

For the compound `C=CCCC(=O)Nc1nnc(CCSCCc2nnc(NC(=O)CCC=C)s2)s1` [Compound 18], the IC50 came to 4.5 µM.

Consider `CCC(C)C(=O)Nc1nnc(CCSCCc2nnc(NC(=O)C(C)CC)s2)s1` (centres unmarked) [Compound 105], for which the IC50 was 9.9 µM.

Take `CS(=O)(=O)c1ccc(CC(=O)Nc2nnc(CCSCCc3nnc(NC(=O)Cc4ccc(S(C)(=O)=O)cc4)s3)s2)cc1` [Compound 182]: the IC50 stood at 0.58 µM.

Staying with this experiment, now noted: read-out: GAC Delta N2 IC50 no preinc.
Take `O=C(Cc1ccccc1CO)Nc1nnc(CCCCc2nnc(NC(=O)Cc3ccccc3CO)s2)s1` [Compound 208]: the IC50 came to 0.17 µM.

Consider `O=C(Nc1nnc(CCSCCc2nnc(NC(=O)c3ccccc3)s2)s1)c1ccccc1` [Compound 2], for which the IC50 amounted to 4.1 µM.
